Measured values reported in patent publication US11331306B2, “Pharmaceutical compositions comprising 4-[1-(2,3-dimethylphenyl)ethyl]-3H-imidazole derivatives for treating retinal diseases” (Allergan, Inc., priority 2011, dated 2022).
Where two headings read alike, the source gives them in different places.

Columns and labels:
alpha 2A receptor = target: T1, alpha 2A receptor (Homo sapiens, UniProt P08913); assay: biochemical; conditions: for Relative Efficacy: efficacy relative to the full agonist brimonidine (1.0)
T1 sequence (P08913 1-465): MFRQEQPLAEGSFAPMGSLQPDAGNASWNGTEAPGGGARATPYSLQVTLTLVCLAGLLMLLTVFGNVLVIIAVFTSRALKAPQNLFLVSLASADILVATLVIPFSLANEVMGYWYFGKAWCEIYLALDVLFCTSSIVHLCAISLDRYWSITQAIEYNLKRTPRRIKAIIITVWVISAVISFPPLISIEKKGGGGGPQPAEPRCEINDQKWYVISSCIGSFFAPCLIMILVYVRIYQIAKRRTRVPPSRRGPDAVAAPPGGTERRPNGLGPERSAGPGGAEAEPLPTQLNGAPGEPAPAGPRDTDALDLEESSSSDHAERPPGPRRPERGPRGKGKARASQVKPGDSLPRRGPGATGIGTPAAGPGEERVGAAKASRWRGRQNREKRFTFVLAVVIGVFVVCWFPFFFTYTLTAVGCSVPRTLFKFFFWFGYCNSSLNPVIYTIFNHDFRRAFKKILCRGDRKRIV
Procedure: In the GTPase assay, receptor activation results in dissociation of GDP and binding of the nonhydrolyzable [^35S]GTPyS to receptor-coupled G-proteins. The extent of binding is a measure of receptor activation. Membranes were prepared from HEK cells transiently expressing the alpha 2A receptor and the three subunits of the Gi G-protein. Membranes were thawed and resuspended using a Polytron disrupter in 4° C. membrane buffer and quantified via Bradford assay. The quantified protein was then added to reaction buffer [50 mM Tris-HCl, 100 mM NaCl, 5 mM MgCl2, 1 mM DTT, 1 mM EDTA, 3 μM propranolol, and 0.1 mM AMP; pH 7.4 and 4° C. to achieve a 100 μg/ml concentration, allowed to incubate for 15 minutes, and then incubated for an additional 10 minutes in the presence of 6 μM GDP. The above mixture was then aliquoted, 50 μL/well, in a 96 well plate, combined with an equal volume of test compound dissolved in assay buffer [50 mM Tris-HCl, 100 mM NaCl, 5 mM MgCl2, 1 mM EDTA, and 1 mM DTT, pH 7.4 and 4° C.], and allowed to incubate for 5 minutes. Immediately following the above incubation, the mixture was combined with 50 μL of 1.5 nM [^35S]GTPyS in assay buffer and shaken covered for 60 minutes at 25° C. Assays were terminated by vacuum filtration over GF/B filters blocked with 0.5% BSA. Filters were then washed with 4° C. wash buffer [50 mM Tris-HCl, 100 mM NaCl, and 5 mM MgCl2, pH 7.5. The incorporated [^35S]GTPyS was determined using a Microbeta 1450B liquid scintillation counter after the plates had dried overnight.

[1] = drug level in the retina under continuous subcutaneous infusion; format: in vivo, Sprague Dawley rats; conditions: rats, continuous subcutaneous infusion pumps, 1 mg/kg/day
Procedure: (§1) Drugs were administered continuously with subcutaneous infusion pumps at a dose of 1 mg/kg/day starting two days before blue light exposure. These concentrations result in drug levels in the retina of 2.3 ng/g OH-dexmedetomidine which are sufficient for pharmacological activity. Twenty 4-month old male Sprague Dawley rats (body weight 470-550 g) were used in this study. The animals were exposed to room light on a 12 hour light/12 hour dark cycle before the experiment. All animals were dark adapted overnight (16-20 hours) before blue light. Under the intensity of 6100-6500 lux, rats were exposed to blue light for 4 hours. After the blue light, rats were placed in the dark for another 3 days before returning to normal 12 hour light/12 hour dark. Ocular Coherence Tomography (OCT) measurement was performed at 7 days post blue light exposure. […] Histology studies have shown that the reduction in retinal thickness is attributable to loss of photoreceptors.

[2] = test system: blue light model of retinal degeneration in rats; assay: blue light model of retinal degeneration, retinal thickness by OCT; format: in vivo, Sprague Dawley rats; conditions: 1 mg/kg/day subcutaneous infusion from two days before 4 hours blue light, OCT at 7 days post exposure, versus saline
Procedure: as §1

α2A-adrenergic receptor = target: T2, α2A-adrenergic receptor (Homo sapiens, UniProt P08913); conditions: for down regulation of alpha 2A receptor (receptor density): binding studies, result in words; for Percent of B max Decrease: 24 hours, HEK 293T cells stably transfected with α2A-adrenergic receptor
T2 sequence (P08913 1-465): T1 sequence (P08913 1-465)
Procedure: Human embryonic kidney (HEK) 293T cells stably transfected with the α2A-adrenergic receptor were grown to 50-60% confluency on T-175 culture flasks in DMEM (Gibco, cat. #11995), 10% FBS (Gibco, cat. #16140), 0.25 μg/ml puromycin (Sigma, cat. # P-8833), and 1% antibiotic-antimycotic (Gibco, cat. #15240) maintained at 37° C. and 5% CO2. […] The cells were then washed with room temperature Dulbecco's phosphate buffered saline (DPBS; Gibco, cat. #14190).
Cells were harvested with 4° C. Tris-EDTA buffer [50 mM Tris-HCl, 5 mM EDTA; pH 7.4] and centrifuged at 5,000×g for 5 minutes at 4° C. Membrane preparation was conducted by resuspending the cell pellets in 4° C. Tris-EDTA buffer and lysed with a Polytron disrupter two times (setting 7, 5 seconds each). The lysed suspension was then centrifuged at […] for 32 minutes at 4° C. After decanting the supernatant, the pelleted material was further lysed in 4° C. Tris buffer [50 mM Tris-HCl; pH 8.0] using the Polytron disrupter (setting 4, 5 seconds). Membranes were then aliquoted, pelleted at […] for 32 minutes at 4° C., and stored at −80° C. until use.
Membranes were thawed and resuspended using a Polytron disrupter in 4° C. HBSS-HEPES buffer [1 part 1M HEPES: 5 parts 10× Hank's Balanced Salt Solution: 43.8 parts H2O; pH 7.4 with KOH) and quantified via Bradford assay. The quantified protein was further diluted with HBSS-HEPES buffer to achieve a 100 μg/ml concentration. Membrane suspension was plated in a 96-well plate at 200 IμLs/well±10 μM phentolamine HCl (Sigma, cat. # P-7547) and [Methyl-^3H] Rauwolscine (15 nM to 0.05 nM; PerkinElmer, cat. # NET722250UC). The assay plate was slowly shaken and incubated at 25° C. for ninety minutes. Immediately following the above incubation, the assays were terminated by vacuum filtration over GF/B filters. Filters were then washed with 4° C. HBSS-HEPES buffer. The incorporated [Methyl-^3H] Rauwolscine was determined using a Microbeta 1450B liquid scintillation counter after the plates had dried overnight.

| Structure (SMILES) | EC50 (alpha 2A receptor) [nM] | Relative Efficacy (alpha 2A receptor) | drug levels in the retina [1] [ng/g] | damage caused by blue light (reduction of retinal thickness measured by OCT) [2] | damage caused by blue light (reduction of retinal thickness measured by OCT) ([2]; listed as (S) [3-(1-(1H-imidazol-4-yl)ethyl)-2-methylphenyl] methanol) | down regulation of alpha 2A receptor (receptor density) (α2A-adrenergic receptor) | Percent of B max Decrease (α2A-adrenergic receptor; compound concentration 1 μM) [%] | Percent of B max Decrease (α2A-adrenergic receptor; compound concentration 10 μM) [%] |
| --- | --- | --- | --- | --- | --- | --- | --- | --- |
| Cc1c(CO)cccc1C(C)c1c[nH]cn1 (racemic) [OH-medetomidine, [3-(1-(1H-imidazol-4-yl)ethyl)-2-methylphenyl] methanol, reference compound] | 20 | 0.26 | – | – | – | – | – | – |
| Cc1c(CO)cccc1[C@H](C)c1c[nH]cn1 [OH-dexmedetomidine, (S) [3-(1-(1H-imidazol-4-yl)ethyl)-2-methylphenyl] methanol] | 45 | 0.65 | 2.3 | significantly reduced the damage caused by blue light | reduced the damage caused by blue light | very little down regulation of alpha 2A receptor | −25 | −14 |
| Brc1c(N=C2NCCN2)ccc2nccnc12 [brimonidine, (5-bromo-quinoxalin-6-yl)-imidazolidin-2-ylidene-amine, reference compound] | – | – | – | – | – | strong reduction in the alpha 2A receptor density | −45 | −60 |
